Test results: US20100331248A1, “COMPOSITIONS AND METHODS FOR TREATING DIABETES USING LISOFYLLINE AND ISLET NEOGENESIS ASSOCIATED PEPTIDE” (DIAKINE THERAPEUTICS, INC., priority 2008, published 2010)
Entries after “also recorded” stand apart in the source; their conditions may differ. Read-outs that look alike come from different tables or passages of the source. Ends that are not written are not given here.

Experiments:
[1] = test system: NOD mice with spontaneous diabetes; test: Therapy regimen of LSF and INGAP in spontaneously diabetic NOD mice maintained on insulin pellets; assay type: in vivo; conditions: for blood glucose levels (non-fasting) at the end of treatments: FIG. 3, diabetic NOD mice, LSF 27 mg/kg/day continuous sc infusion, INGAP 500 μg qd ip; for remission rate of diabetes: FIG. 5, diabetic NOD mice observed after all therapy stopped
Method: The following example illustrates a therapy regimen (FIG. 1) involving INGAP peptide and LSF for building and preserving β-cell mass and increasing insulin production in a mammal. NOD mice were monitored for diabetes by measuring blood glucose levels. Mice were allowed to develop spontaneous diabetes, which usually occurs around the age of 18 weeks. Non-fasting blood glucose levels >250 mg/dL measured for 3 different days was considered evidence of diabetes onset. Shortly after diagnosing diabetes, the NOD mice received an insulin pellet implanted subcutaneously in order to maintain them during the treatment period of 6 to 7 weeks. The pellet provides 0.1 U/d of bovine insulin. The mice were then assigned to one of 5 treatment groups: Group 1—Normal saline via continuous subcutaneous infusion (placebo). The saline was delivered via an implantable subcutaneous osmotic mini-pump. The mice received the placebo for 4 weeks and continued on insulin for another 2 weeks. The insulin was then stopped, and the mice observed to determine if the treatment was effective. Group 2—LSF (27 mg/kg/day via continuous subcutaneous infusion) alone. The LSF was delivered via an implantable subcutaneous osmotic mini-pump. The mice received LSF for 4 weeks, continued on insulin for another 2 weeks, and then observed to determine if the treatment was effective. Group 3—INGAP (500 μg qd ip) alone. The mice received INGAP and insulin for 6 weeks, the treatment was then stopped, and the mice observed to determine if the treatment was effective. Group 4—LSF (27 mg/kg/day via continuous subcutaneous infusion) plus INGAP (500 μg qd ip) administered concomitantly. The LSF was delivered via an implantable subcutaneous osmotic mini-pump. The mice received LSF for 4 weeks and INGAP and insulin for 6 weeks. The treatments were then stopped and the mice observed to determine if the treatment was effective. Group 5—LSF (27 mg/kg/day via continuous subcutaneous infusion) for a week of pretreatment as monotherapy. Here the immune system was first treated to ‘cool it off’ so that any new islets would be growing in a less hostile environment. INGAP was then added to the treatment regimen (at 500 μg qd ip) and administered concomitantly with the LSF for an additional 5 weeks. LSF treatment was discontinued at week 6. INGAP and Insulin were continued for 1 more week until week 7. All therapy was then discontinued and the mice observed to determine if the treatment was effective. See treatment timeline depicted in FIG. 2.

[2] = cited from earlier work
[3] = test system: non-obese diabetic (NOD) mice; conditions: LSF alone, when hyperglycemia became detectable; cited from earlier work
[4] = test system: streptozotocin-induced diabetic mice; conditions: cited from earlier work

Compound	blood glucose levels (non-fasting) at the end of treatments [1]	remission rate of diabetes [1]	safety in clinical studies ([2]; clinical studies, open IND on file with FDA)	reversal of autoimmune diabetes [3]	insulin production of treated animals ([1]; FIG. 15)	safety in clinical studies ([2]; in vivo)	effect on islet formation and glycemia [4]
C[C@@H](O)CCCCn1c(=O)c2c(ncn2C)n(C)c1=O [LSF, 1-(5-R-hydroxyhexyl)-3,7-dimethylxanthine]	little or no effect	no remission; also recorded: No mice	safe	did not reverse	–	–	–
IGLHDPSHGTLPNGS [INGAP]	little or no effect	10%	–	–	producing insulin	safe	restore euglycemia
